Assay results published in the NIST ThermoML archive (doi:10.1016/j.jct.2016.12.029).

Assay: xn = mol fraction of the nth substance listed
Settings: Gas, Buoyancy - hydrostatic balance with magnetic suspension - one sinker

C=C(F)C(F)(F)F [2,3,3,3-tetrafluoro-1-propene] + CCC
Settings | mass density [kg/m3]
265.46 K, 101.2 kPa, x1 = 1 | 5.404
265.48 K, 207.2 kPa, x1 = 1 | 11.507
265.55 K, 106.5 kPa, x1 = 0.8116 | 5.018
265.56 K, 107.5 kPa, x1 = 0.583 | 4.254
265.57 K, 104 kPa, x1 = 0.0906 | 2.433
265.57 K, 181.7 kPa, x1 = 0.8116 | 8.775
265.57 K, 198.3 kPa, x1 = 0.583 | 8.052
265.57 K, 206.2 kPa, x1 = 0.0906 | 4.954
265.58 K, 299.3 kPa, x1 = 0.0906 | 7.374
265.59 K, 295.1 kPa, x1 = 0.583 | 12.343
265.6 K, 249 kPa, x1 = 0.8116 | 12.31
270.36 K, 101 kPa, x1 = 1 | 5.279
270.38 K, 164.6 kPa, x1 = 1 | 8.792
270.38 K, 250.3 kPa, x1 = 1 | 13.798
270.4 K, 103.2 kPa, x1 = 0.2546 | 2.918
270.41 K, 182.2 kPa, x1 = 0.2546 | 5.239
270.42 K, 267 kPa, x1 = 0.2546 | 7.839
270.44 K, 102.4 kPa, x1 = 0.0906 | 2.353
270.44 K, 194.1 kPa, x1 = 0.0906 | 4.555
270.44 K, 338.6 kPa, x1 = 0.0906 | 8.243
270.45 K, 102.6 kPa, x1 = 0.583 | 3.972
270.45 K, 215 kPa, x1 = 0.583 | 8.58
270.47 K, 349 kPa, x1 = 0.583 | 14.488
270.5 K, 105.1 kPa, x1 = 0.8116 | 4.852
270.5 K, 182.6 kPa, x1 = 0.8116 | 8.631
270.5 K, 286.6 kPa, x1 = 0.8116 | 14.015
275.39 K, 106.2 kPa, x1 = 1 | 5.448
275.4 K, 208.6 kPa, x1 = 1 | 11.064
275.41 K, 188.7 kPa, x1 = 0.2546 | 5.334
275.41 K, 306 kPa, x1 = 0.2546 | 8.898
275.42 K, 303.7 kPa, x1 = 1 | 16.657
275.43 K, 404.2 kPa, x1 = 0.2546 | 12.054
275.45 K, 102.2 kPa, x1 = 0.583 | 3.894
275.45 K, 198.4 kPa, x1 = 0.583 | 7.744
275.46 K, 103.9 kPa, x1 = 0.0906 | 2.338
275.46 K, 196 kPa, x1 = 0.0906 | 4.504
275.46 K, 282.9 kPa, x1 = 0.0906 | 6.633
275.47 K, 107.9 kPa, x1 = 0.8116 | 4.886
275.47 K, 211 kPa, x1 = 0.8116 | 9.844
275.47 K, 300.7 kPa, x1 = 0.583 | 12.066
275.47 K, 374.9 kPa, x1 = 0.0906 | 8.996
275.49 K, 325.2 kPa, x1 = 0.8116 | 15.724
275.49 K, 415.1 kPa, x1 = 0.583 | 17.223
280.28 K, 103.6 kPa, x1 = 1 | 5.208
280.29 K, 176.6 kPa, x1 = 1 | 9.076
280.29 K, 274 kPa, x1 = 1 | 14.527
280.29 K, 356.2 kPa, x1 = 1 | 19.43
280.31 K, 101.5 kPa, x1 = 0.2546 | 2.757
280.31 K, 195.7 kPa, x1 = 0.2546 | 5.424
280.31 K, 360.4 kPa, x1 = 0.2546 | 10.374
280.31 K, 476.4 kPa, x1 = 0.2546 | 14.119
280.32 K, 279.7 kPa, x1 = 0.2546 | 7.895
280.33 K, 202 kPa, x1 = 0.583 | 7.713
280.34 K, 102.8 kPa, x1 = 0.583 | 3.835
280.34 K, 300.9 kPa, x1 = 0.583 | 11.781
280.34 K, 401.2 kPa, x1 = 0.583 | 16.148
280.35 K, 481.2 kPa, x1 = 0.583 | 19.822
280.36 K, 103.6 kPa, x1 = 0.8116 | 4.599
280.36 K, 106.5 kPa, x1 = 0.0906 | 2.352
280.37 K, 190.7 kPa, x1 = 0.8116 | 8.666
280.37 K, 207.3 kPa, x1 = 0.0906 | 4.678
280.38 K, 294.7 kPa, x1 = 0.8116 | 13.792
280.39 K, 315.2 kPa, x1 = 0.0906 | 7.287
280.4 K, 369 kPa, x1 = 0.8116 | 17.665
280.4 K, 425 kPa, x1 = 0.0906 | 10.088
285.27 K, 258.8 kPa, x1 = 1 | 13.34
285.28 K, 104.7 kPa, x1 = 1 | 5.162
285.28 K, 164.2 kPa, x1 = 1 | 8.23
285.28 K, 358.5 kPa, x1 = 1 | 19.078
285.29 K, 306.8 kPa, x1 = 0.2546 | 8.517
285.29 K, 414.7 kPa, x1 = 0.2546 | 11.796
285.29 K, 520.3 kPa, x1 = 0.2546 | 15.183
285.3 K, 104 kPa, x1 = 0.2546 | 2.771
285.3 K, 204 kPa, x1 = 0.2546 | 5.541
285.32 K, 104.6 kPa, x1 = 0.583 | 3.829
285.32 K, 198.9 kPa, x1 = 0.583 | 7.432
285.32 K, 309.1 kPa, x1 = 0.583 | 11.855
285.32 K, 414.1 kPa, x1 = 0.583 | 16.308
285.33 K, 524.2 kPa, x1 = 0.583 | 21.282
285.35 K, 103.9 kPa, x1 = 0.0906 | 2.256
285.35 K, 107.3 kPa, x1 = 0.8116 | 4.677
285.35 K, 203.4 kPa, x1 = 0.8116 | 9.079
285.36 K, 205.6 kPa, x1 = 0.0906 | 4.552
285.37 K, 298.4 kPa, x1 = 0.0906 | 6.733
285.37 K, 311 kPa, x1 = 0.8116 | 14.287
285.38 K, 402.5 kPa, x1 = 0.0906 | 9.29
285.38 K, 413.6 kPa, x1 = 0.8116 | 19.58
285.39 K, 494.1 kPa, x1 = 0.0906 | 11.653
290.25 K, 583.7 kPa, x1 = 0.583 | 23.524
290.38 K, 102.2 kPa, x1 = 1 | 4.937
290.39 K, 184.5 kPa, x1 = 1 | 9.113
290.4 K, 203.9 kPa, x1 = 0.583 | 7.494
290.4 K, 308.8 kPa, x1 = 1 | 15.792
290.4 K, 421.2 kPa, x1 = 1 | 22.298
290.41 K, 103.5 kPa, x1 = 0.583 | 3.727
290.41 K, 300.6 kPa, x1 = 0.583 | 11.287
290.41 K, 403.8 kPa, x1 = 0.583 | 15.532
290.41 K, 496.6 kPa, x1 = 0.583 | 19.555
290.42 K, 102.2 kPa, x1 = 0.2546 | 2.673
290.42 K, 202.4 kPa, x1 = 0.2546 | 5.395
290.42 K, 297.9 kPa, x1 = 0.2546 | 8.09
290.42 K, 393.4 kPa, x1 = 0.2546 | 10.9
290.43 K, 490.8 kPa, x1 = 0.2546 | 13.893
290.44 K, 106.8 kPa, x1 = 0.8116 | 4.568
290.44 K, 199.7 kPa, x1 = 0.8116 | 8.728
290.44 K, 298.5 kPa, x1 = 0.8116 | 13.363
290.44 K, 586.4 kPa, x1 = 0.2546 | 16.977
290.46 K, 104.6 kPa, x1 = 0.0906 | 2.225
290.46 K, 208.6 kPa, x1 = 0.0906 | 4.52
290.46 K, 314.2 kPa, x1 = 0.0906 | 6.95
290.46 K, 380.2 kPa, x1 = 0.8116 | 17.392
290.46 K, 409.5 kPa, x1 = 0.0906 | 9.237
290.46 K, 465.4 kPa, x1 = 0.8116 | 21.81
290.46 K, 539.6 kPa, x1 = 0.0906 | 12.53
295.4 K, 101.7 kPa, x1 = 1 | 4.829
295.4 K, 196.9 kPa, x1 = 1 | 9.565
295.4 K, 400.6 kPa, x1 = 1 | 20.565
295.4 K, 600.7 kPa, x1 = 1 | 32.885
295.41 K, 305.3 kPa, x1 = 1 | 15.255
295.41 K, 510.2 kPa, x1 = 1 | 27.092
295.43 K, 213.4 kPa, x1 = 0.2546 | 5.607
295.44 K, 312 kPa, x1 = 0.2546 | 8.352
295.44 K, 420 kPa, x1 = 0.2546 | 11.485
295.44 K, 526.9 kPa, x1 = 0.2546 | 14.734
295.45 K, 511.2 kPa, x1 = 0.583 | 19.692
295.45 K, 638.2 kPa, x1 = 0.2546 | 18.298
295.46 K, 105.6 kPa, x1 = 0.583 | 3.727
295.46 K, 202.1 kPa, x1 = 0.583 | 7.273
295.46 K, 304.8 kPa, x1 = 0.583 | 11.205
295.46 K, 309.4 kPa, x1 = 0.0906 | 6.711
295.46 K, 410.8 kPa, x1 = 0.583 | 15.457
295.46 K, 411.3 kPa, x1 = 0.0906 | 9.102
295.47 K, 104.2 kPa, x1 = 0.0906 | 2.174
295.47 K, 209.6 kPa, x1 = 0.0906 | 4.463
295.47 K, 517.9 kPa, x1 = 0.0906 | 11.713
295.47 K, 624.6 kPa, x1 = 0.583 | 24.759
295.48 K, 105.6 kPa, x1 = 0.8116 | 4.43
295.48 K, 198.1 kPa, x1 = 0.8116 | 8.481
295.48 K, 304 kPa, x1 = 0.8116 | 13.338
295.48 K, 403.2 kPa, x1 = 0.8116 | 18.133
295.48 K, 629.5 kPa, x1 = 0.0906 | 14.594
295.5 K, 514.3 kPa, x1 = 0.8116 | 23.825
300.2 K, 668.8 kPa, x1 = 1 | 36.434
300.21 K, 108 kPa, x1 = 1 | 5.039
300.21 K, 218.9 kPa, x1 = 1 | 10.489
300.21 K, 324 kPa, x1 = 1 | 15.933
300.21 K, 439.4 kPa, x1 = 1 | 22.291
300.21 K, 545.8 kPa, x1 = 1 | 28.564
300.21 K, 702.5 kPa, x1 = 0.0906 | 16.204
300.23 K, 569.7 kPa, x1 = 0.8116 | 26.154
300.24 K, 599.9 kPa, x1 = 0.0906 | 13.531
300.24 K, 701 kPa, x1 = 0.583 | 27.648
300.25 K, 190.5 kPa, x1 = 0.0906 | 3.98
300.25 K, 392.5 kPa, x1 = 0.8116 | 17.228
300.25 K, 396.6 kPa, x1 = 0.0906 | 8.595
300.25 K, 489.8 kPa, x1 = 0.8116 | 22.015
300.25 K, 506.5 kPa, x1 = 0.0906 | 11.208
300.25 K, 600.3 kPa, x1 = 0.583 | 23.086
300.26 K, 102.6 kPa, x1 = 0.583 | 3.557
300.26 K, 104.5 kPa, x1 = 0.0906 | 2.152
300.26 K, 106.3 kPa, x1 = 0.8116 | 4.378
300.26 K, 200.3 kPa, x1 = 0.583 | 7.077
300.26 K, 298.9 kPa, x1 = 0.583 | 10.761
300.26 K, 300 kPa, x1 = 0.0906 | 6.389
300.26 K, 301.1 kPa, x1 = 0.8116 | 12.94
300.26 K, 506.5 kPa, x1 = 0.583 | 19.062
300.27 K, 198.3 kPa, x1 = 0.8116 | 8.334
300.27 K, 400.3 kPa, x1 = 0.583 | 14.716
